The source of these data is patent publication US8039455B2, “Macrocyclic compounds useful as BACE inhibitors” (Novartis AG, priority 2005, dated 2011).

The experiment addresses human BACE (Homo sapiens, UniProt P56817). The experiment in a line: Test 1: Inhibition of Human BACE. Format: biochemical. An excerpt:
Test 1: Inhibition of Human BACE

What is called IC50 is the concentration that gives 50% inhibition.

human BACE, sequence (P56817 46-457 limits assumed): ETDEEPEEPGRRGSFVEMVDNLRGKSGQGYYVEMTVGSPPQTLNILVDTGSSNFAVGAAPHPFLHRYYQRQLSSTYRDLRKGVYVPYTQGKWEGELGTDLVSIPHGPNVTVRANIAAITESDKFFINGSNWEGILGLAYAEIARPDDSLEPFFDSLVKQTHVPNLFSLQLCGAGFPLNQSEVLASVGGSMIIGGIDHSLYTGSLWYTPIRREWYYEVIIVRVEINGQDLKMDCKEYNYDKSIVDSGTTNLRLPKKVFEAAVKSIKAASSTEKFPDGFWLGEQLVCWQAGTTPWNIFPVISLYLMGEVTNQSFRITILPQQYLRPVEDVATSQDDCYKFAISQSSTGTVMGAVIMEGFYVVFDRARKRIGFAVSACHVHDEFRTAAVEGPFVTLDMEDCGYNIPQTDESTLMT

For the molecule `CC(=O)c1cc2cc(c1)C(=O)N[C@H]([C@H](O)CNC1(c3cccc(C(C)C)c3)CC1)Cc1cccc(c1)CCCCO2` [Example 5, (S)-18-Acetyl-4-{(R)-1-hydroxy-2-[1-(3-isopropyl-phenyl)-cyclopropylamino]-ethyl}-15-oxa-3-aza-tricyclo[14.3.1.1*6,10*]henicosa-1(20),6,8,10(21),16,18-hexaen-2-one], half-maximal inhibition (IC50) required 250 nM.
